Reference: patent US20090162855A1, “Identification of Genetic Variants Associated with Increased Severity of Pulmonary Disease” (CASE WESTERN RESERVE UNIVERSITY, priority 2007, published 2009)
Square brackets hold non-standard residues; d marks the D form. Peptide text beside a SMILES is read from it.

Experiments:
[1] = system: smooth muscle cells; assay: Intracellular calcium mobilization from sarcoplasmic reticulum measured using Fura-2; assay type: cell-based; settings: 24 hrs in endothelin, washout
Experimental: FIG. 12 is a graph showing the response of cultures of smooth muscle cells to endothelin-1 (ET-1) acutely (control) and sarcoplasmic reticulum release of calcium measured by Fura-2 fluorescence ratios.
Smooth muscle cells of various EDNRA genotype combinations were examined for changes in intracellular calcium in response to endothelin. The effects of chronic exposure were assessed by incubating the cells for 24 hrs in endothelin, followed by a brief washout (30 minutes) and then re-exposure to endothelin and measurement of calcium release. […] For these assays, intracellular calcium mobilization from sarcoplasmic reticulum was measured using Fura-2. No significant differences were observed between subjects with regards to magnitude or duration of response from acute stimulation (FIG. 12, control). However, if cultured for 24 hrs in the presence of endothelin, washed out just before reexposure, there is a significant difference between subjects in the magnitude of response (FIG. 12, ET-1 conditioned).

[2] = system: human ASM cells; assay: Actin stress fiber formation (TRITC-phalloidin) in cultured ASM cells; assay type: cell-based; settings: cultured in presence of ET-1 for 24 hours; preliminary data
Description: FIG. 11 is a pair of micrographs of cultured ASM cells placed in either serum free media (A) or media containing ET-1 (B) for 24 hr; and
EDNRA is expressed on airway and vascular smooth muscle. Using indirect immunocytochemical staining of human ASM cells from the trachealis muscle retrieved from necroscopy tissue of 53 individuals, we have determined these cells consistently display EDNRA on the cell membrane (FIG. 10—staining is predominantly along cell membranes). […] This implies a functional receptor with ligand binding and intact intracellular signaling pathways.

[3] = system: tracheal smooth muscle cells; assay: Mitogenic index by BrdU incorporation in primary cultures of tracheal smooth muscle cells; assay type: cell-based, human; settings: for proliferation (BrdU incorporation), treated vs untreated: cultures from 9 individuals, estrogen 72 hrs
Description: (§1) A cellular phenotype that could potentially explain the genotype-phenotype association is a difference in smooth muscle proliferation. To be able to assess this in vitro, we have carried out studies examining the mitogenic effects of the receptor agonist, endothelin, on cultured smooth muscle cells, as well as those of estrogen and Transforming Growth Factor Beta 1 (TGFβ1). In these studies, TGFβ1 is used as a control mitogen in that it exerts its effect on proliferation independent of the endothelin receptor. […] Primary cultures of tracheal smooth muscle cells from 4 individuals were treated with TGFβ1, estrogen, endothelin, or estrogen and endothelin (Estr/Endo) for 72 hrs, and assayed for mitogenic index by BrdU incorporation (FIG. 8A) or for cell number (FIG. 8B). Values shown are ratios of treated to untreated (control) cells grown simultaneously. Each cell line and condition was carried out in triplicate. […] An EDNRA antagonist, BQ123 (Sigma), was included at 1 μM to determine if EDNRA-mediated effects could be blocked.
A larger group of cell lines stratified by genotype was examined. Primary cultures of tracheal smooth muscle cells from 9 individuals were treated with estrogen for 72 hrs, assayed for BrdU incorporation and compared to control cultures (no estrogen). FIG. 9 provides the ratio of treated to untreated cells. […] Treatment with estrogen appears to result in increased proliferation, but the effect is genotype dependent. This is in contrast to other reports of vascular smooth muscle in which estrogen inhibits proliferation.

[4] = system: tracheal smooth muscle cells; assay type: cell-based, human; settings: cultures from 4 individuals, 72 hrs
Description: as §1

[5] = system: EDNRA mRNA; assay: Quantitative RT-PCR of EDNRA mRNA in smooth muscle cell lines treated with estrogen; assay type: cell-based, human; settings: 9 smooth muscle cell lines (5 female, 4 male), estrogen 24 hours, vs unstimulated cells, 18S rRNA internal control
Experimental: Effects of these variants on EDNRA mRNA levels were examined. Primary airway smooth muscle cells from 10 non-CF individuals were harvested for DNA and RNA. Airway smooth muscle cells were cultured from tracheas obtained from autopsy. Cells were isolated from human trachealis muscle by digesting with collagenase and elastase in the presence of soybean trypsin inhibitor at 37° C. as previously described. The cells were harvested by centrifugation after filtering through Nytex and grown in Dulbecco's modified eagle's medium (DMEM/F12 1:1) containing 10% fetal bovine serum, 100 U/ml penicillin and 100 μg/ml streptomycin at 37° C. in a humidified atmosphere with 5% CO2 and 95% air. DNA samples were genotyped for rs1801708 and rs5335 and EDNRA mRNA quantified from total RNA by real time RT-PCR. EDNRA mRNA was quantified relative to 18s rRNA in 10 airway smooth muscle cell lines and compared by genotype. RNA was isolated from airway smooth muscle cells using the Qiagen RNeasy kit. […] A Ct was established for each sample and compared to standard curves to determine mRNA quantity. […] Values are expressed as a ratio of EDNRA: 18s copies. […]
Nine smooth muscle cell lines were exposed to estrogen and mRNA levels compared to unstimulated cells. […] Quantitative RT-PCR was carried out to determine copy number using 18S rRNA as an internal control. […]

Question: With CC[C@H](C)[C@H](NC(=O)[C@H](CC(=O)O)NC(=O)[C@H](CC(C)C)NC(=O)[C@H](Cc1c[nH]cn1)NC(=O)[C@@H]1CSSC[C@H](N)C(=O)N[C@@H](CO)C(=O)N[C@H]2CSSC[C@H](NC(=O)[C@H](CCC(=O)O)NC(=O)[C@H](CCCCN)NC(=O)[C@H](CC(=O)O)NC(=O)[C@H](CCSC)NC(=O)[C@H](CC(C)C)NC(=O)[C@H](CO)NC(=O)[C@H](CO)NC2=O)C(=O)N[C@@H](C(C)C)C(=O)N[C@@H](Cc2ccc(O)cc2)C(=O)N[C@@H](Cc2ccccc2)C(=O)N1)C(=O)N[C@H](C(=O)N[C@@H](Cc1c[nH]c2ccccc12)C(=O)O)[C@@H](C)CC [endothelin-1] as the compound, how does the “calcium release activity lost on re-exposure” value ([1]; cells with "adverse" genotypes) read?
Answer: 10-15%

Question: What about the “calcium release activity on re-exposure, of pre-exposure activity” value ([1]; cells with "protective" genotype of 3′ markers) of the same compound?
Answer: 15%

Question: What about the “formation of actin stress fibers” value [2] of the same compound?
Answer: increases the formation of actin stress fibers

Question: How did the “mitogenic index (BrdU incorporation), ratio of treated to untreated cells” value ([3]; cultures from 4 individuals, 72 hrs) turn out when “Transforming Growth Factor Beta 1 [TGFβ1]” was run?
Answer: tripled

Question: And the “cell number, ratio of treated to untreated cells” value [4]?
Answer: did not significantly alter cell number

Question: CC(C)C[C@@H]1NC(=O)[C@@H](C(C)C)NC(=O)[C@@H]2CCCN2C(=O)[C@@H](CC(=O)O)NC(=O)[C@@H](Cc2c[nH]c3ccccc23)NC1=O [BQ123] (cyclo(L[dW][dD]P[dV])) was tested. Which “mitogenic index of cells with EDNRA antagonist included” value ([3]; BQ123 at 1 μM) did it give?
Answer: reduced the mitogenic index

Question: How did the “increase of EDNRA mRNA levels in response to hormone treatment” value [5] turn out when estrogen was run?
Answer: approximately 5 fold

Question: And the “proliferation (BrdU incorporation), treated vs untreated” value ([3]; cells with "protective" GG genotype)?
Answer: no effect

Question: What about the “proliferation (BrdU incorporation), treated vs untreated” value ([3]; cells with "severe" AA genotype) of the same compound?
Answer: increase proliferation
